Assay results: US5866597A, “Use of triazine compounds for the treatment of memory and learning disorders” (Glaxo Wellcome Inc., priority 1993, dated 1999)

Assays:
[1] = system: scopolamine-induced deficit in mice; assay: Modified light-dark box memory test in mice, scopolamine-induced deficit, drug given pre-training (Table 1); type: in vivo, Male albino CD-1 mice; conditions: for Mean latency Day 1 / Mean latency Day 2: ± SEM
Protocol: (§1) Male albino CD-1 mice obtained from Charles River were used. They were housed under controlled conditions (temperature 21±2 deg. C., humidity approx. 50%, 12 hour light/dark cycle, food and water ad lib) for one week before use. On the day before test, the mice were housed in groups of six in polythene boxes in the laboratory and marked for identification. Food and water were supplied ad lib. On the test day, animals were weighed and then dosed either 30 minutes before test (piracetam, ondansetron) one hour before test (compound A) or immediately after test.
All drugs were dissolved or suspended in 0.25% (w/v) aqueous celacol, and administered orally (by gavage), i.p. or s.c. The dose volume was 10 ml/kg for all routes.
(§2) The apparatus consisted of two boxes with an opening 90 mm×60 mm at floor level between them. A plastic door was used to close the opening when required. The smaller box (290 mm×120 mm×120 mm high) was made of opaque plastics, open at the top to allow illumination by normal laboratory lighting. The larger box (305 mm square×280 mm high) was enclosed apart from the single opening.
(§3) This consisted of training, with retest 24 hours later. During training, animals were placed individually in the open box facing away from the end with the opening. After a period of exploration, they usually entered the dark box and the latency to entry in seconds was noted. The door to the dark box was closed, and after 30 seconds had elapsed, the animal was removed gently and returned to the holding box. Twenty-four hours later, an identical procedure was used, except that the session ended as soon as the animal had entered the dark box. The latency was again noted. During the interval, the animals were not handled, and were disturbed as little as possible. Each animal was used once only.
(§4) Test drugs or control fluids were given before or immediately after the training session.
Group comparisons were made between latencies to enter the dark compartment on the first and second occasions. For both training and retest occasions, comparisons were made between vehicle and treatment groups. […] The difference between latencies on the two occasions is presented as % decrease on Day 2 compared with Day 1.
(§5) The mean latency to enter the dark box±standard error of the mean was calculated from a group of 12 animals. For a given treatment, figures in the columns labelled `Day 1` and `Day 2` show the mean latencies taken from the same group of animals. The difference between data obtained on the two days is illustrated by showing the % decrease, and the data compared using the Mann-Whitney U-test; NS indicates a p value>0.1.

[2] = system: scopolamine-induced deficit in mice; assay: Modified light-dark box memory test in mice, scopolamine-induced deficit, drug given immediately post-training (Table 2); type: in vivo, Male albino CD-1 mice; conditions: for Mean latency Day 1 / Mean latency Day 2: ± SEM
Protocol: as §1
[…] The dose volume was 10 ml/kg for all routes.
as §2, §3, §4
Group comparisons were made between latencies to enter the dark compartment on the first and second occasions. For both training and retest occasions, comparisons were made between vehicle and treatment groups. The distribution of latencies was skewed on both learning and retest trials (data not shown), so the non-parametric Mann-Whitney U-test was used. The difference between latencies on the two occasions is presented as % decrease on Day 2 compared with Day 1.
as §5

[3] = system: scopolamine-induced deficit in rats; assay: Light-dark box memory test in rats, scopolamine-induced deficit, single dose pre-training (Tables 3 and 4); type: in vivo, Male Wistar rats; conditions: for Mean latency Day 1 / Mean latency Day 2: ± SEM
Protocol: Male Wistar rats obtained from Charles River were used. They were housed under controlled conditions (temperature 21±2 deg. C., humidity approx. 50%, 12 hour light/dark cycle, food and water ad lib) for one week before use. On the day before test the rats were permanently housed in groups of six. Food and water were supplied ad lib. On the test day, animals were weighed and then dosed either 30 minutes before test (midazolam), one hour before test (compound A) or immediately after test.
All drugs were dissolved or suspended in 0.25% (w/v) aqueous celacol, and administered orally (by gavage), i.p. or s.c. The dose volume was 5 ml/kg for all routes.
An identical apparatus to that described in Example 1 was used, except that the smaller box measured 370 mm×260 mm×190 mm.
This consisted of training as described for mice under section (d) of Example 1.
as §4
This was as described under section (e) of Example 1.

[4] = system: scopolamine-induced pupillary dilatation in rats; assay: Pupil diameter measurement in rats (Table 6); type: in vivo, Male Wistar rats; conditions: for Mean pupil diameter: ± SEM
Protocol: 15 minutes before observation. Under these conditions, which were identical to those used in the learning experiments described in Example 2, changes in salivation and pupil diameter were measured. Salivation was measured by placing a piece of folded filter paper in the rat's mouth and measuring the diameter of the blot in mm after 1 minute. Pupil diameter was measured using a magnifying glass and graticule under normal lighting conditions. For both measures, comparisons were made between control and drug-treated groups using a Student's T-test on independent samples.
Groups of 6 animals were used.

[5] = system: voltage-sensitive sodium channels; conditions: Lang et al 1993; Lees and Leach 1993; cited from earlier work
[6] = system: release of excitatory amino acids, principally glutamate; conditions: at anticonvulsant brain concentrations; cited from earlier work
[7] = saline s.c. + compound A 40 mg/kg p.o., 1 h pre-training
[8] = scopolamine 1 mg/kg s.c. + compound A 10 mg/kg p.o.
[9] = scopolamine 1 mg/kg s.c. + compound A 20 mg/kg p.o.
[10] = scopolamine 1 mg/kg s.c. + compound A 40 mg/kg p.o.
[11] = saline s.c. + compound A 20 mg/kg i.v. post-training
[12] = saline s.c. + compound A 40 mg/kg p.o. post-training
[13] = scopolamine 1 mg/kg s.c. + compound A 20 mg/kg i.v. post-training
[14] = scopolamine 1 mg/kg s.c. + compound A 40 mg/kg p.o. post-training
[15] = saline s.c. + compound A 40 mg/kg p.o.
[16] = scopolamine 0.1 mg/kg s.c. + compound A 10 mg/kg p.o.
[17] = scopolamine 0.1 mg/kg s.c. + compound A 20 mg/kg p.o.
[18] = scopolamine 0.1 mg/kg s.c. + compound A 40 mg/kg p.o.

In the case of `Nc1nnc(-c2cccc(Cl)c2Cl)c(N)n1` [Compound A, 3,5-Diamino-6-(2,3-dichlorophenyl)-1,2,4-triazine], the “Difference between days, % Decrease” value ([1]; saline s.c. + compound A 40 mg/kg p.o., 1 h pre-training, p <0.01) is reported as 45%, the “Mean latency Day 1” value [1, 7] is reported as 23.3 ± 3.4 s and the “Mean latency Day 2” value [1, 7] is reported as 12.8 ± 1.2 s. The “Difference between days, % Decrease” value ([1]; scopolamine 1 mg/kg s.c. + compound A 10 mg/kg p.o., p NS) was 13%, the “Mean latency Day 1” value [1, 8] was 19.6 ± 1.7 s and the “Mean latency Day 2” value [1, 8] was 17.1 ± 2.2 s. For the same compound, the “Difference between days, % Decrease” value ([1]; scopolamine 1 mg/kg s.c. + compound A 20 mg/kg p.o., p <0.05) was 28%, the “Mean latency Day 1” value [1, 9] was 18.6 ± 2.4 s and the “Mean latency Day 2” value [1, 9] was 13.3 ± 1.5 s. For the same compound, the “Difference between days, % Decrease” value ([1]; scopolamine 1 mg/kg s.c. + compound A 40 mg/kg p.o., p <0.001) was 56%, the “Mean latency Day 1” value [1, 10] was 22.1 ± 3.2 s and the “Mean latency Day 2” value [1, 10] was 9.7 ± 1.2 s. The “Reversal of scopolamine-induced deficit” value ([2]; compound A 20 mg/kg i.v. post-training) was “no reversal of the scopolamine-induced deficit”, the “Reversal of scopolamine-induced deficit” value ([2]; compound A 40 mg/kg p.o. post-training) was “no reversal of the scopolamine-induced deficit” and the “Difference between days, % Decrease” value ([2]; saline s.c. + compound A 20 mg/kg i.v. post-training, p (0.09)) was 26%. The “Mean latency Day 1” value [2, 11] was 19.9 ± 2.7 s, the “Mean latency Day 2” value [2, 11] was 14.8 ± 2.1 s and the “Difference between days, % Decrease” value ([2]; saline s.c. + compound A 40 mg/kg p.o. post-training, p <0.05) was 30%. The “Mean latency Day 1” value [2, 12] was 20.0 ± 2.3 s, the “Mean latency Day 2” value [2, 12] was 13.9 ± 1.5 s and the “Difference between days, % Decrease” value ([2]; scopolamine 1 mg/kg s.c. + compound A 20 mg/kg i.v. post-training, p NS) was -1%. For the same compound, the “Mean latency Day 1” value [2, 13] was 20.0 ± 2.3 s, the “Mean latency Day 2” value [2, 13] was 20.3 ± 2.5 s and the “Difference between days, % Decrease” value ([2]; scopolamine 1 mg/kg s.c. + compound A 40 mg/kg p.o. post-training, p NS) was -23%. For the same compound, the “Mean latency Day 1” value [2, 14] was 18.5 ± 1.8 s, the “Mean latency Day 2” value [2, 14] was 22.7 ± 2.6 s and the “Difference between days, % Decrease” value ([3]; saline s.c. + compound A 40 mg/kg p.o., p <0.001) was 50%. For the same compound, the “Mean latency Day 1” value [3, 15] was 38.3 ± 3.8 s, the “Mean latency Day 2” value [3, 15] was 19.3 ± 3.0 s and the “Difference between days, % Decrease” value ([3]; scopolamine 0.1 mg/kg s.c. + compound A 10 mg/kg p.o., p NS) was 0%. For the same compound, the “Mean latency Day 1” value [3, 16] was 40.8 ± 4.8 s, the “Mean latency Day 2” value [3, 16] was 40.8 ± 4.6 s and the “Difference between days, % Decrease” value ([3]; scopolamine 0.1 mg/kg s.c. + compound A 20 mg/kg p.o., p NS*) was 16%. For the same compound, the “Mean latency Day 1” value [3, 17] was 37.7 ± 4.4 s, the “Mean latency Day 2” value [3, 17] was 31.7 ± 3.9 s and the “Difference between days, % Decrease” value ([3]; scopolamine 0.1 mg/kg s.c. + compound A 40 mg/kg p.o., p <0.01) was 45%. The “Mean latency Day 1” value [3, 18] was 38.4 ± 4.1 s, the “Mean latency Day 2” value [3, 18] was 21.1 ± 3.6 s and the Mean pupil diameter ([4]; compound A 10 mg/kg p.o. + saline s.c.) was 7.00 ± 0.58 mm × 10. For the same compound, the Mean pupil diameter ([4]; compound A 40 mg/kg p.o. + saline s.c.) was 7.75 ± 0.85 mm × 10, the Mean pupil diameter ([4]; compound A 40 mg/kg p.o. + scopolamine 0.1 mg/kg s.c.) was 23.0 ± 1.78 mm × 10 and the “Influence on scopolamine-induced change in pupil diameter” value ([4]; compound A pretreatment, p>0.05 vs vehicle) was “no influence on the scopolamine-induced changes”. For the same compound, the “Block of voltage-sensitive sodium channels” value [5] was “use-dependent block of voltage-sensitive sodium channels” and the “Inhibition of release of excitatory amino acids, principally glutamate” value [6] was “inhibit the release of excitatory amino acids, principally glutamate”.
